# Results as given in US20170347651A1, “ACTIVE COMPOUND COMBINATIONS COMPRISING A (THIO)CARBOXAMIDE DERIVATIVE AND FUNGICIDAL COMPOUND(S)” (Bayer CropScience Aktiengesellschaft, priority 2014, published 2017).
# Assays:
# [1] = test system: Leptosphaeria nodorum; assay: in vivo preventive Leptosphaeria nodorum test (wheat); conditions: 8 days after inoculation
# Protocol: (§1) To produce a suitable preparation of active compound, 1 part by weight of active compound or active compound combination is mixed with the stated amounts of solvent and emulsifier, and the concentrate is diluted with water to the desired concentration.
# (§2) To test for preventive activity, young plants are sprayed with the preparation of active compound or active compound combination at the stated rate of application. After the spray coating has been dried, the plants are sprayed with a spore suspension of Leptosphaeria nodorum. The plants remain for 48 hours in an incubation cabinet at approximately 20° C. and a relative atmospheric humidity of approximately 100%. The plants are placed in the greenhouse at a temperature of approximately 25° C. and a relative atmospheric humidity of approximately 80%.
# (§3) The test is evaluated 8 days after the inoculation. 0% means an efficacy which corresponds to that of the untreated control, while an efficacy of 100% means that no disease is observed.
# [2] = test system: Puccinia triticina; assay: in vivo preventive Puccinia triticina test (wheat); conditions: 8 days after inoculation
# Protocol: as §1
# as §2, with “Puccinia triticina.” for “Leptosphaeria nodorum.”, “20°” for “25°”
# as §3
# [3] = test system: Septoria tritici; assay: in vivo preventive Septoria tritici test (wheat); conditions: 21 days after inoculation
# Protocol: as §1
# To test for preventive activity, young plants are sprayed with the preparation of active compound or active compound combination at the stated rate of application.
# After the spray coating has been dried, the plants are sprayed with a spore suspension of Septoria tritici.
# The plants remain for 48 hours in an incubation cabinet at approximately 20° C. and a relative atmospheric humidity of approximately 100% and afterwards for 60 hours at approximately 15° C. in a translucent incubation cabinet at a relative atmospheric humidity of approximately 100%.
# The plants are placed in the greenhouse at a temperature of approximately 15° C. and a relative atmospheric humidity of approximately 80%.
# The test is evaluated 21 days after the inoculation. 0% means an efficacy which corresponds to that of the untreated control, while an efficacy of 100% means that no disease is observed.
# [4] = test system: Pyrenophora teres; assay: in vivo preventive Pyrenophora teres test (barley); conditions: 8 days after inoculation
# Protocol: as §1
# as §2, with “Pyrenophora teres.” for “Leptosphaeria nodorum.”, “20°” for “25°”
# as §3
structure (smiles),measurement,setting,value
"CC(C)c1ccc(Cl)cc1CN(C(=O)c1c(C(F)F)nn(C)c1F)C1CC1 [A5, N-(5-chloro-2-isopropylbenzyl)-N-cyclopropyl-3-(difluoromethyl)-5-fluoro-1-methyl-1H-pyrazole-4-carboxamide]",Efficacy in % found,[1]; 6.25 ppm a.i.,17%
same,Efficacy in % found,[1]; 12.5 ppm a.i.,33%
same,Efficacy in % found,[2]; 7.5 ppm a.i.,30%
same,Efficacy in % found,[2]; 15 ppm a.i.,50%
same,Efficacy in % found,[2]; 30 ppm a.i.,70%
same,Efficacy in % found,"[3]; Table A1, wheat, 20 ppm a.i.",10%
same,Efficacy in % found,"[3]; Table A2, wheat, 15 ppm a.i.",30%
same,Efficacy in % found,"[3]; Table A2, wheat, 30 ppm a.i.",50%
same,Efficacy in % found,[4]; 25 ppm a.i.,71%
O=C(NCCc1ncc(C(F)(F)F)cc1Cl)c1ccccc1C(F)(F)F [fluopyram],Efficacy in % found,[1]; 9.375 ppm a.i.,0%
same,Efficacy in % found,[2]; 45 ppm a.i.,0%
same,Efficacy in % found,"[3]; Table A2, wheat, 45 ppm a.i.",40%
same,Efficacy in % found,[4]; 37.5 ppm a.i.,43%
OC(Cc1ccccc1Cl)(Cn1nc[nH]c1=S)C1(Cl)CC1 (stereo not drawn) [prothioconazole],Efficacy in % found,[1]; 18.75 ppm a.i.,0%
same,Efficacy in % found,[1]; 25 ppm a.i.,0%
same,Efficacy in % found,[2]; 30 ppm a.i.,0%
same,Efficacy in % found,[2]; 90 ppm a.i.,20%
same,Efficacy in % found,"[3]; Table A1, wheat, 200 ppm a.i.",30%
same,Efficacy in % found,"[3]; Table A2, wheat, 60 ppm a.i.",40%
same,Efficacy in % found,"[3]; Table A2, wheat, 90 ppm a.i.",20%
same,Efficacy in % found,[4]; 50 ppm a.i.,0%
same,Efficacy in % found,[4]; 75 ppm a.i.,0%
CC(C)(C)C(O)(CCc1ccc(Cl)cc1)Cn1cncn1 (stereo not drawn) [tebuconazole],Efficacy in % found,[1]; 25 ppm a.i.,0%
same,Efficacy in % found,[2]; 30 ppm a.i.,30%
same,Efficacy in % found,"[3]; Table A2, wheat, 60 ppm a.i.",20%
same,Efficacy in % found,[4]; 50 ppm a.i.,0%
CON=C(C(=O)OC)c1ccccc1CON=C(C)c1cccc(C(F)(F)F)c1 [trifloxystrobin],Efficacy in % found,"[3]; Table A1, wheat, 20 ppm a.i.",30%
